Converted amounts (≈) assume the structure as drawn.
Assays:
[1] = test system: Lactobacillus casei YIT 9029; assay: Cell wall degradation of YIT 9029 by lysozyme and mutanolysin (recombinant) with added saccharide, turbidity OD615; assay type: cell-based; details: saccharide 0.5 M, 37° C.; for cell wall degradation-promoting effect / cell wall degradation-promoting effect after 1 hour of the reaction: FIG. 4; for cell wall degradation rate compared with the reaction in which no saccharide was added: up to 24 hours, FIG. 1
Procedure: Lactobacillus casei YIT 9029 (hereinafter, referred to as YIT 9029) was used. Thirty microliters of the pre-cultured bacterial solution of about 2×10^9 CFU/mL cultured in the MRS Broth was inoculated in 30 mL of the MRS Broth prepared in the above (2) and then cultured at 37° C. for 24 hours. […] The bacteria were suspended in a 5 mM Tris-maleate buffer solution (manufactured by Sigma-Aldrich Co.) (pH 6.4) of the same volume as that of the original bacterial solution, and 100 μg of lysozyme from chicken egg white lyophilized powder (manufactured by Sigma-Aldrich Co., hereinafter, referred to as lysozyme), which is egg white lysozyme, and 100 U of mutanolysin (recombinant) (manufactured by A&A Biotechnology) were added per 1 mL of the suspension. The reaction solution was treated at 37° C. for 24 hours. In addition, in order to examine the influence of the addition of a saccharide on cell wall degradation reaction, the same reaction was performed using a Tris-maleate buffer solution containing D-glucose or L-rhamnose at a final concentration of 0.5 M instead of the Tris-maleate buffer solution. Each reaction was performed in triplicate. The turbidity (OD615) of the bacterial suspension at 615 nm (maximal absorption wavelength; measurement wavelength range: 575-660 nm) was measured over time using a spectrophotometer PiCOSCOPE PAS-110 (manufactured by Ushio Inc.), and the degradation rate was calculated by the following equation (1). The degradation rate was shown by the mean±standard deviation of triplicate. Degradation rate=1−(OD615 after reaction/OD615 before reaction) (1). (6) Result […] Each reaction was performed in triplicate. The same reaction as in Example 1 was performed except that D-arabinose, L-arabinose, D-lyxose, L-lyxose, D-xylose, L-xylose, D-ribose, L-ribose, D-fucose, L-fucose, D-mannose, L-mannose, D-galactose, or D-fructose was added as the saccharide, and the cell wall degradation-promoting effect of each saccharide was examined. Each reaction was performed in triplicate. […] Each reaction was performed in triplicate.

[2] = test system: Lactobacillus casei YIT 9029; assay: Cell wall degradation of YIT 9029 by mutanolysin (recombinant) alone with added saccharide, turbidity OD615; assay type: cell-based; details: 37° C.; for degradation-promoting effect, mutanolysin alone: 0.5, 1.0 or 1.5 M, FIG. 5B
Procedure: The bacteria were suspended in a 5 mM Tris-maleate buffer solution (manufactured by Sigma-Aldrich Co.) (pH 6.4) of the same volume as that of the original bacterial solution, and 100 μg of lysozyme from chicken egg white lyophilized powder (manufactured by Sigma-Aldrich Co., hereinafter, referred to as lysozyme), which is egg white lysozyme, and 100 U of mutanolysin (recombinant) (manufactured by A&A Biotechnology) were added per 1 mL of the suspension. The reaction solution was treated at 37° C. for 24 hours. In addition, in order to examine the influence of the addition of a saccharide on cell wall degradation reaction, the same reaction was performed using a Tris-maleate buffer solution containing D-glucose or L-rhamnose at a final concentration of 0.5 M instead of the Tris-maleate buffer solution. Each reaction was performed in triplicate. The turbidity (OD615) of the bacterial suspension at 615 nm (maximal absorption wavelength; measurement wavelength range: 575-660 nm) was measured over time using a spectrophotometer PiCOSCOPE PAS-110 (manufactured by Ushio Inc.), and the degradation rate was calculated by the following equation (1). The degradation rate was shown by the mean±standard deviation of triplicate. Degradation rate=1−(OD615 after reaction/OD615 before reaction) (1). (6) Result It was expected from Examples 1 to 4 that a saccharide such as D-arabinose increases the activity of mutanolysin to promote the degradation of cell wall. However, since a possibility that the saccharide increases the activity of lysozyme that has been added together cannot be excluded, the degradation rate when YIT 9029 was treated with mutanolysin or lysozyme alone was examined using some saccharides. […] Each reaction was performed without replicates. […] Each reaction was performed in triplicate.

[3] = test system: Lactobacillus casei YIT 9029; assay: Cell wall degradation of YIT 9029 by lysozyme alone with added saccharide, turbidity OD615; assay type: cell-based; details: 1.5 M, 37° C., FIG. 5A
Procedure: The bacteria were suspended in a 5 mM Tris-maleate buffer solution (manufactured by Sigma-Aldrich Co.) (pH 6.4) of the same volume as that of the original bacterial solution, and 100 μg of lysozyme from chicken egg white lyophilized powder (manufactured by Sigma-Aldrich Co., hereinafter, referred to as lysozyme), which is egg white lysozyme, and 100 U of mutanolysin (recombinant) (manufactured by A&A Biotechnology) were added per 1 mL of the suspension. The reaction solution was treated at 37° C. for 24 hours. In addition, in order to examine the influence of the addition of a saccharide on cell wall degradation reaction, the same reaction was performed using a Tris-maleate buffer solution containing D-glucose or L-rhamnose at a final concentration of 0.5 M instead of the Tris-maleate buffer solution. Each reaction was performed in triplicate. The turbidity (OD615) of the bacterial suspension at 615 nm (maximal absorption wavelength; measurement wavelength range: 575-660 nm) was measured over time using a spectrophotometer PiCOSCOPE PAS-110 (manufactured by Ushio Inc.), and the degradation rate was calculated by the following equation (1). The degradation rate was shown by the mean±standard deviation of triplicate. Degradation rate=1−(OD615 after reaction/OD615 before reaction) (1). […]

[4] = test system: Lactobacillus casei YIT 9029; assay: Cell wall degradation of YIT 9029 by lysozyme and mutanolysin (recombinant) with added saccharide, turbidity OD615; assay type: cell-based; details: for difference between the promotion effects of the D-form and the L-form: 0.1 M to 1.5 M; for difference between the promotion effects of the D-form and the L-form / concentration dependence of the degradation rate: FIG. 6; for concentration dependence of the degradation rate: concentration range of 0.1 M and 1.0 M
[5] = Solubility in water at room temperature; assay type: physicochemical; details: read-out: upper limit of the solubility in water
[6] = test system: Lactobacillus casei YIT 9029; assay: Cell wall degradation of YIT 9029 by lysozyme and mutanolysin from Streptomyces globisporus ATCC 21553 with added saccharide, turbidity OD615; assay type: cell-based; details: 1.5 M, 37° C. or 50° C., mutanolysin from Streptomyces globisporus ATCC 21553, FIG. 3A
Procedure: The reaction solution was treated at 37° C. for 24 hours. In addition, in order to examine the influence of the addition of a saccharide on cell wall degradation reaction, the same […] buffer solution. Each reaction was performed in triplicate. The turbidity (OD615) of the bacterial suspension at 615 nm (maximal absorption wavelength; measurement wavelength range: 575-660 nm) was measured over time using a spectrophotometer PiCOSCOPE PAS-110 (manufactured by Ushio Inc.), and the degradation rate was calculated by the following equation (1). The degradation rate was shown by the mean±standard deviation of triplicate. Degradation rate=1−(OD615 after reaction/OD615 before reaction) (1). (6) Result […] Each reaction was performed without replicates.

## O=C[C@H](O)[C@H](O)[C@H](O)CO [D-ribose]
[1]
  cell wall degradation-promoting effect: showed the cell wall degradation-promoting effect

## O=C[C@@H](O)[C@@H](O)[C@@H](O)CO [L-ribose]
[1]
  cell wall degradation-promoting effect: showed the cell wall degradation-promoting effect

## O=C[C@H](O)[C@@H](O)[C@H](O)CO [D-xylose]
[1]
  cell wall degradation-promoting effect after 1 hour of the reaction: showed the cell wall degradation-promoting effect

## C[C@H](O)[C@@H](O)[C@@H](O)[C@H](O)C=O [L-fucose]
[1]
  degradation rate after 1 hour of the reaction relative to the reaction in which no saccharide was added: about 3 times
  cell wall degradation-promoting effect: showed the cell wall degradation-promoting effect
[2]
  degradation-promoting effect, mutanolysin alone: showed the degradation-promoting effect

## O=C[C@@H](O)[C@H](O)[C@H](O)CO [D-arabinose]
[1]
  degradation rate after 1 hour of the reaction relative to the reaction in which no saccharide was added: about 4 times
  cell wall degradation-promoting effect: showed the cell wall degradation-promoting effect
[3]
  promotion of degradation, lysozyme alone: did not show significant promotion of degradation
[4]; 37° C. or 50° C.
  difference between the promotion effects of the D-form and the L-form: no difference
[4]; 1.5 M, 37° C., FIG. 5A
  promotion of degradation, mutanolysin and lysozyme in combination: promoted the degradation
[4]; 1.5 M, 50° C., FIG. 7
  degradation rate after 1 hour: 93%
[4]
  concentration dependence of the degradation rate: concentration dependence was observed
[4]; reaction for a short time, FIG. 7
  degradation rate at 50° C. compared with 37° C.: higher
[2]; 1.5 M, FIG. 5A
  promotion of degradation, mutanolysin alone: promoted the degradation
[5]
  solubility: ~1500 mM (≈ 225 mg/mL)

## O=C[C@H](O)[C@H](O)[C@@H](O)[C@@H](O)CO [L-mannose]
[1]
  cell wall degradation-promoting effect: showed the cell wall degradation-promoting effect
[2]
  degradation-promoting effect, mutanolysin alone: showed the degradation-promoting effect

## O=C(CO)[C@@H](O)[C@H](O)[C@H](O)CO [D-fructose]
[1]
  cell wall degradation-promoting effect after 1 hour of the reaction: showed the cell wall degradation-promoting effect

## O=C[C@@H](O)[C@@H](O)[C@H](O)CO [D-lyxose]
[1]
  cell wall degradation-promoting effect: showed the cell wall degradation-promoting effect

## O=C[C@@H](O)[C@H](O)[C@@H](O)CO [L-xylose]
[1]
  cell wall degradation-promoting effect: showed the cell wall degradation-promoting effect

## O=C[C@H](O)[C@@H](O)[C@@H](O)CO [L-arabinose]
[1]
  degradation rate after 1 hour of the reaction relative to the reaction in which no saccharide was added: about 4 times
  cell wall degradation-promoting effect: showed the cell wall degradation-promoting effect
[4]; 37° C. or 50° C.
  difference between the promotion effects of the D-form and the L-form: no difference
[4]
  concentration dependence of the degradation rate: concentration dependence was observed
[2]
  degradation-promoting effect, mutanolysin alone: showed the degradation-promoting effect
[5]
  solubility: ~1500 mM (≈ 225 mg/mL)

## O=C[C@H](O)[C@H](O)[C@@H](O)CO [L-lyxose]
[1]
  cell wall degradation-promoting effect: showed the cell wall degradation-promoting effect

## O=C[C@H](O)[C@@H](O)[C@H](O)[C@H](O)CO [D-glucose, reference compound]
[1]
  cell wall degradation rate compared with the reaction in which no saccharide was added: decrease in cell wall degradation rate

## C[C@H](O)[C@H](O)[C@@H](O)[C@@H](O)C=O [L-rhamnose]
[1]
  cell wall degradation rate compared with the reaction in which no saccharide was added: increase in cell wall degradation rate
[4]; 0.5, 1.0, 1.5 M, 37° C. or 50° C., FIG. 2
  degradation rate with increasing concentrations of L-rhamnose: increased with increasing concentrations
[4]; 1.5 M, 37° C.
  degradation rate after 24 hours of the reaction: 0.97
[4]; 1.5 M, 37° C. or 50° C., mutanolysin (recombinant), FIG. 3B
  cell wall degradation rate compared with the reaction in which no saccharide was added: increase in cell wall degradation rate
[4]; 1.5 M, 37° C., rate = 1-(OD615 after/OD615 before)
  degradation rate after 5 hours of the reaction: 0.83
[4]; 1.5 M, 50° C.
  degradation rate after 24 hours of the reaction: 0.87
[4]; 1.5 M, 50° C., rate = 1-(OD615 after/OD615 before)
  degradation rate after 1 hour of the reaction: 0.69
[2]
  degradation-promoting effect, mutanolysin alone: showed the degradation-promoting effect
[6]
  cell wall degradation rate compared with the reaction in which no saccharide was added: increase in cell wall degradation rate

From US12721349B2, “Method for promoting bacterial cell wall degradation” (KABUSHIKI KAISHA YAKULT HONSHA, priority 2019, dated 2026)
